In patent US10729710B2, “Catecholamine prodrugs for use in the treatment of Parkinson's disease” (H. Lundbeck A/S, priority 2017, dated 2020):
Counter-ions that a name gives are not always drawn.

Legend:
[1] = male, Han Wistar, rat, in vivo, po, 4 h
Description: (§1) Plasma was placed on water-ice following collection. Final storage at approximately −70° C.
Mass spectrometer (UPCLC-MS/MS) Waters Acquity I-Class-Waters Xevo TQ-S. Analytical column Acquity HSS T3 C18 50×2.1 mm, 1.8 μm. Mobile phase A: 10 mM NH4-Formate 0.2% formic acid:Acetonitril (95:5). Mobile phase B: 10 mM NH4-Formate 0.2% formic acid:Acetonitril (5:95). Gradient run from 95/5% to 5/95% in 2.40 min. Flow rate 0.3 mL/min. MRM detection of test items and the added analytical standards
The rats had unrestricted access to the diet. Male Han Wistar rats were administered a single dose of apomorphine either subcutaneously or orally by gavage, or administered a single dose of apormorphine conjugates orally by gavage.

[2] = target: human D1 receptor (Homo sapiens (Human), UniProt P21728); assay: Dopamine D1 receptor agonism, HTRF cAMP assay; format: cell-based; details: normalized to 30 uM dopamine = 100%
Description: Dopamine D1 receptor agonism was measured using a HTRF cAMP from CisBio using the protocol developed by HD Biosciences (China). Briefly, the assay is a homogeneous time resolved-fluorescence resonance energy transfer (HTRF) assay that measures production of cAMP by cells in a competitive immunoassay between native cAMP produced by cells and cAMP-labeled with XL-665. A cryptate-labeled anti-cAMP antibody visualizes the tracer. The assay was performed in accordance with instructions from manufacturer.
Test compounds were added to wells of microplates (384 format). HEK-293 cells expressing the human D1 receptor were plated at 1000 cells/well and incubated 30 min at room temperature. cAMP-d2 tracer was added to wells and followed by addition of Anti-cAMP antibody-cryptate preparation and incubated for 1 h at room temperature in dark. HTRF cAMP was measured by excitation of the donor with 337 nm laser (the “TRF light unit”) and subsequent (delay time 100 microseconds) measurement of cryptate and d2 emission at 615 nm and 665 nm over a time window of 200 microseconds with a 2000 microseconds time window between repeats/100 flashes). HRTF measurements were performed on an Envision microplate reader (PerkinElmer). The HTRF signal was calculated as the emission-ratio at 665 nm over 615 nm. The HTRF ratio readout for test compounds was normalized to 0% and 100% stimulation using control wells with DMSO-solvent or 30 uM dopamine. Test compound potency (EC50) was estimated by nonlinear regression using the sigmoidal dose-response (variable slope) using Xlfit 4 (IDBS, Guildford, Surrey, UK, model 205). y=(A+((B−A)/(1+((C/x)^D)))) where y is the normalized HTRF ratio measurement for a given concentration of test compound, x is the concentration of test compound, A is the estimated efficacy at infinite compound dilution, and B is the maximal efficacy. C is the EC50 value and D is the Hill slope coefficient. EC50 estimates were obtained from an independent experiment and the logarithmic average was calculated. Dopamine D2 Receptor Agonism

[3] = target: human 5-HT2B receptor (Homo sapiens (Human), UniProt P41595); assay: 5-HT2B agonist activity assay (IP1 production, HTRF); format: cell-based; details: read-out: 5-HT2B Emax
Description: Evaluation of the agonist activity of compounds (I), (Ia) and (Ib) at the human 5-HT2B receptor was performed by Eurofins/Cerep (France) measuring the compound effects on inositol monophosphate (IP1) production using the HTRF detection method. Briefly, the human 5-HT2B receptor was expressed in transfected CHO cells. The cells were suspended in a buffer containing 10 mM Hepes/NaOH (pH 7.4), 4.2 mM KCl, 146 mM NaCl, 1 mM CaCl2, 0.5 mM MgCl2, 5.5 mM glucose and 50 mM LiCl, then distributed in microplates at a density of 4100 cells/well and incubated for 30 min at 37° C. in the presence of buffer (basal control), test compound or reference agonist. For stimulated control measurement, separate assay wells contained 1 μM 5-HT. Following incubation, the cells were lysed and the fluorescence acceptor (fluorophen D2-labeled IP1) and fluorescence donor (anti-IP1 antibody labeled with europium cryptate) were added. After 60 min at room temperature, the fluorescence transfer was measured at lambda(Ex) 337 nm and lambda(Em) 620 and 665 nm using a microplate reader (Rubystar, BMG). The IP1 concentration was determined by dividing the signal measured at 665 nm by that measured at 620 nm (ratio). The results were expressed as a percent of the control response to 1 μM 5-HT. The standard reference agonist was 5-HT, which was tested in each experiment at several concentrations to generate a concentration-response curve from which its EC50 value is calculated as described above for dopamine functional assays.

[4] = target: human D2 receptor (Homo sapiens (Human), UniProt P14416); assay: Dopamine D2 receptor agonism, calcium mobilization assay; format: cell-based; details: normalized to 1 μM dopamine = 100%
Description: Dopamine D2 receptor agonism was measured using a calcium mobilization assay protocol developed by HD Biosciences (China). Briefly, HEK293/G15 cells expressing human D2 receptor were plated at a density of 15000 cells/well in clear-bottomed, Matrigel-coated 384-well plates and grown for 24 hrs at 37° C. in the presence of 5% CO2. The cells were incubated with calcium-sensitive fluorescent dye, Fluo8, for 60-90 minutes at 37° C. in the dark. Test compounds were prepared at 3-fold concentrated solution in 1×HBSS buffer with Ca^2+ and Mg^2+. Calcium Flux signal was immediately recorded after compounds were added from compound plate to cell plate at FLIPR (Molecular Devices). The fluorescence data were normalized to yield responses for no stimulation (buffer) and full stimulation (1 μM of dopamine) of 0% and 100% stimulation, respectively. Test compound potency (EC50) was estimated by nonlinear regression using the sigmoidal dose-response (variable slope) using Xlfit 4 (IDBS, Guildford, Surrey, UK, model 205). y=(A+((B−A)/(1+((C/x)^D)))) where y is the normalized ratio measurement for a given concentration of test compound, x is the concentration of test compound, A is the estimated efficacy at infinite compound dilution, and B is the maximal efficacy. C is the EC50 value and D is the Hill slope coefficient. EC50 estimates were obtained from independent experiment and the logarithmic average was calculated.

[5] = Liu et al., Bioorganic Med. Chem. (2008); cited from earlier work
[6] = tested on: hepatocytes from human; assay: Conversion to compound (I) in human hepatocytes; format: in vitro ADME; details: 1 μg/mL, 37° C., 0.25-60 minutes, FIG. 7b
Description: (§2) The cell concentration at incubation was 1×10^6 viable cells/mL. The incubations were performed in glass tubes at 37° C. with a total incubation volume of 3.5 mL and with duplicate incubations for each test item. The 3.5 mL of hepatocyte suspension was equilibrated for 10 minutes in a water bath set to 37° C. where after the incubations were initiated by adding 3.5 μL of a stock solution of the test item in DMSO (Dimethyl sulfoxide) and gently inverting the tubes. The final solvent concentration in the incubations was 0.1% DMSO. Samples of 600 μL were withdrawn from the incubations at the pre-determined time points of 0.25, 5, 15, 30 and 60 minutes after ensuring homogeneity of hepatocyte suspensions. The withdrawn volume was added to 1 mL Nunc cryo tubes on wet ice containing 60 μL of ice cold ascorbic acid (100 mg/mL) and 30 μL of ice cold 100 mM saccharic acid 1.4-lactone in 0.5 M citric acid. The tubes were mixed and 35 μL of a solution of ice cold 20% formic acid was added. The tubes were mixed thoroughly and stored at −80° C. awaiting analysis. Analysis method and Instrumentation used for analysis of (I) from dosing (Id-ia), (Id-ib), (Id-iia) and (Id-iib), were the one described in Examples 4 and 5 below in the section “Instrumentation used for analysis of compound (I) from dosing of compounds (Ic), (Id-ia), (Id-ib), (Id-iia), (Id-iib), (Id-iab) and (Id-iiab).”
(§3) Analysis method and Instrumentation used for analysis of (I) from dosing (Id-iab) and (Id-iiab) consisted of mixing equal aliquots of the samples and precipitation solution (acetonitrile (MeCN) with 10% methanol (MeOH) and 1% formic acid), followed by centrifugation at 4° C. at 16000 g for 10 minutes. Supernatants were collected and analysed by LC-MS/MS. Mass spectrometer: Waters Acquity—Waters Xevo TQ-MS. Analytical column: Acquity UPLC HSS T3, 100×2.1 mm, 1.8 μm. Mobile phase A: 0.2% formic acid in water. Mobile phase B: 0.2% formic acid in acetonitrile. Gradient run from 95/5% to 60/40 in 5 min. Flow rate 0.3 mL/min. MRM monitoring of (I) in the study samples and in the analytical standards.

[7] = tested on: hepatocytes from rat; assay: Conversion to compound (I) in rat hepatocytes; format: in vitro ADME; details: 1 μg/mL, 37° C., 0.25-60 minutes, FIG. 7a
Description: as §2, §3

[8] = Stability of the disulfate in acidic conditions (LCMS); format: physicochemical; details: LCMS with acidic eluent
[9] = PK experiments in rats: plasma compound (I) after oral dosing of prodrugs; format: in vivo, Han Wistar rats; details: Wistar rats, FIG. 2, doses equal to 287 μg/kg of compound (I)
Description: as §1
Mobile phase B: Acetonitrile. […] Flow rate 0.5 mL/min.
The rats had unrestricted access to the diet.
Mobile phase B: Acetonitrile+0.2% formic acid. […] Flow rate 0.3 mL/min.
Han Wistar rats were supplied by Envigo, UK. […] The rats received a standard laboratory diet Teklad 2014C. The rats had unrestricted access to the diet.

[10] = in man after oral dosing; cited from earlier work

Sequence of human D2 receptor (P14416 whole entry): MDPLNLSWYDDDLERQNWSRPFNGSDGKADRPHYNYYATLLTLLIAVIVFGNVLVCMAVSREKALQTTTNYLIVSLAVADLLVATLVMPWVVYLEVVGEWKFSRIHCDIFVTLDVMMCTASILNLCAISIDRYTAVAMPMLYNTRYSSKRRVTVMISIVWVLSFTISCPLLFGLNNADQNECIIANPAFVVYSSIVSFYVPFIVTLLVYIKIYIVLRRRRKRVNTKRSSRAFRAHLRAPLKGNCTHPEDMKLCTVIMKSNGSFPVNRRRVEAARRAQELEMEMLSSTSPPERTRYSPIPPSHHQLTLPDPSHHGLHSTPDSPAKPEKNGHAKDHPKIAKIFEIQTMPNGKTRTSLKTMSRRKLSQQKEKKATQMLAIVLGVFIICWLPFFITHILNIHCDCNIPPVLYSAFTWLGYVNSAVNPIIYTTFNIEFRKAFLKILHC
Sequence of human D1 receptor (P21728 whole entry): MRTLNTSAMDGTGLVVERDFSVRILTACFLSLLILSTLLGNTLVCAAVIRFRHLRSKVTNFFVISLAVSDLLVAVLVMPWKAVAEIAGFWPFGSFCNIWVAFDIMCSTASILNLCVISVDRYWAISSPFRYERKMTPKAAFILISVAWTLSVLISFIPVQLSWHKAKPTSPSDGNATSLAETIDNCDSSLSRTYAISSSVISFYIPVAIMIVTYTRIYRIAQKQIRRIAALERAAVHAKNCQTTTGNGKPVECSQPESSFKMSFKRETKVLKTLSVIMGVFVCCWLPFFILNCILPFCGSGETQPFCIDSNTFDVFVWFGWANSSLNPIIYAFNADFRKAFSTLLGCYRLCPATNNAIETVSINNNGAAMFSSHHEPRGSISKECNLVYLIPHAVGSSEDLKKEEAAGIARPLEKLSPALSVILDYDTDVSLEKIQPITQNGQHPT
Sequence of human 5-HT2B receptor (P41595 whole entry): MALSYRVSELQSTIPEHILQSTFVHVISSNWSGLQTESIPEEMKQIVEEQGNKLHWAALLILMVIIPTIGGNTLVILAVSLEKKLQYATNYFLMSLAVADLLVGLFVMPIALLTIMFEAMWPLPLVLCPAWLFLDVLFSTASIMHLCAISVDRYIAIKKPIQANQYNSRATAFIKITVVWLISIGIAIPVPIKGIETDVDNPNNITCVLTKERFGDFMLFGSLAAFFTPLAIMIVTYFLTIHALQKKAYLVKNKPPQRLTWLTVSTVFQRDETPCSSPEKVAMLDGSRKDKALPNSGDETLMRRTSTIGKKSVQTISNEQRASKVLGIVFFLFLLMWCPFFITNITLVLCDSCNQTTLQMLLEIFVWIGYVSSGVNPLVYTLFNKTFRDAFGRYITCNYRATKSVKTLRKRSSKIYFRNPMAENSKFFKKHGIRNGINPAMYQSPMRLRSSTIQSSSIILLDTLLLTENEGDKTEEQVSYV

CN1CCc2cccc3c2[C@H]1Cc1ccc(O[C@@H]2O[C@H](C(=O)O)[C@@H](O)[C@H](O)[C@H]2O)c(O)c1-3 [(2S,3S,4S,5R,6S)-6-[[(6aR)-11-hydroxy-6-methyl-5,6,6a,7-tetrahydro-4H-dibenzo[de,g]quinolin-10-yl]oxy]-3,4,5-trihydroxy-tetrahydropyran-2-carboxylic acid]
apomorphine in plasma at one time point [1]: 916 pg/mL

CCCN1CCC[C@@H]2Cc3c(ccc(O)c3O)C[C@H]21 [(I), (4aR,10aR)-1-n-Propyl-1,2,3,4,4a,5,10,10a-octahydro-benzo[g]quinoline-6,7-diol, reference compound]
Emax [2]: 99%
Emax [3]: 50%
Emax [4]: 91%
oral bioavailability (in words) [5]: low oral bioavailability

CCCN1CCC[C@@H]2Cc3c(ccc(OS(=O)(=O)O)c3OS(=O)(=O)O)C[C@H]21 [(Id-iiab), (4aR,10aR)-1-propyl-1,2,3,4,4a,5,10,10a-octahydrobenzo[g]quinoline-6,7-diyl bis(hydrogen sulfate)]
conversion to compound (I) in human hepatocytes [6]: could not be detected
conversion to compound (I) in rat hepatocytes [7]: could not be detected
stability in acidic conditions (in words) [8]: instability
plasma profile of compound (I) after oral dosing (in words) [9]: slower absorption rate avoiding rapid peak concentrations accompanied by a sustained exposure of compound (I) in plasma

CCCc1cc2c(s1)CN[C@@H]1CCc3cc(OC(C)=O)c(OC(C)=O)cc3[C@@H]21 [Adrogolide]
oral bioavailability [10]: ~4%
